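Interpolation was linear, between the two tested concentrations surrounding the appropriate level; five concentrations were tested over 48 hours in 96-well plates. GI50 is the concentration that inhibits growth by half.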 Activity calls are given as the source filed them. No stated cut-off is given here; in the data, active = GI50 up to about 1.1 µM and inactive = higher.
What was measured:
Experiment in all cases: inhibition of tumour cell growth, NCI panel, 48 h
[1] = system: NCI-H522
[2] = system: HOP-62
[3] = system: A549
[4] = system: NCI-H460
[5] = system: UACC-257
[6] = system: SNB-75
[7] = system: SF-295
[8] = system: SK-MEL-5
[9] = system: OVCAR-5
[10] = system: MCF7
[11] = system: COLO 205
[12] = system: SF-539
[13] = system: SN12C
[14] = system: HCT-15
[15] = system: SNB-19
[16] = system: EKVX
[17] = system: RXF 393
[18] = system: OVCAR-4
[19] = system: Malme-3M
[20] = system: KM12

Compound	GI50 [1]	GI50 [2]	GI50 [3]	GI50 [4]	GI50 [5]	GI50 [6]	GI50 [7]	GI50 [8]	GI50 [9]	GI50 [10]	GI50 [11]	GI50 [12]	GI50 [13]	GI50 [14] [µM]	GI50 [15]	GI50 [16]	GI50 [17]	GI50 [18]	GI50 [19]	GI50 [20]
CC(C)(C)NC(=O)CCC1C(C(=O)NC(C)(C)C)C2(Cl)C(Cl)=C(Cl)C1(Cl)C2(Cl)Cl (stereo not given)	> 100 µM (inactive)	> 100 µM (inactive)	> 100 µM (inactive)	> 100 µM (inactive)	> 100 µM (inactive)	> 100 µM (inactive)	> 100 µM (inactive)	> 100 µM (inactive)	> 100 µM (inactive)	> 100 µM (inactive)	> 100 µM (inactive)	> 100 µM (inactive)	> 100 µM (inactive)	> 100	> 100 µM (inactive)	> 100 µM (inactive)	> 100 µM (inactive)	> 100 µM (inactive)	> 100 µM (inactive)	> 100 µM (inactive)
CC(C(O)c1ccccc1)C(O)(C(F)(F)F)C(F)(F)F (stereo not given)	> 100 µM (inactive)	> 100 µM (inactive)	> 100 µM (inactive)	> 100 µM (inactive)	> 100 µM (inactive)	65.3 µM (inactive)	> 100 µM (inactive)	49.7 µM (inactive)	> 100 µM (inactive)	76.4 µM (inactive)	> 100 µM (inactive)	> 100 µM (inactive)	> 100 µM (inactive)	> 100	> 100 µM (inactive)	> 100 µM (inactive)	> 100 µM (inactive)	> 100 µM (inactive)	> 100 µM (inactive)	> 100 µM (inactive)
COc1cc2c(cc1OCCCCCCCCN1C(=O)c3cccc4cccc(c34)C1=O)N=C[C@@H]1CCCN1C2=O	12 µM (inactive)	42 µM (inactive)	20 µM (inactive)	20.7 µM (inactive)	26.2 µM (inactive)	1.11 µM (active)	15.6 µM (inactive)	12.7 µM (inactive)	20.4 µM (inactive)	3.71 µM (inactive)	4.71 µM (inactive)	3.45 µM (inactive)	22.2 µM (inactive)	12.8	35.3 µM (inactive)	2.37 µM (inactive)	12.4 µM (inactive)	0.171 µM (active)	21 µM (inactive)	16.3 µM (inactive)
NCCSc1nc2ccccc2s1	28.1 µM (inactive)	23.8 µM (inactive)	48.3 µM (inactive)	36.1 µM (inactive)	47 µM (inactive)	22.8 µM (inactive)	23.4 µM (inactive)	52.7 µM (inactive)	38.3 µM (inactive)	28.8 µM (inactive)	> 100 µM (inactive)	17.3 µM (inactive)	38.7 µM (inactive)	42.9	64.7 µM (inactive)	34.4 µM (inactive)	29.5 µM (inactive)	29 µM (inactive)	50.8 µM (inactive)	45.1 µM (inactive)
Cc1c(NC(=S)NN)c(=O)n(-c2ccccc2)n1C	0.637 µM (active)	> 100 µM (inactive)	> 100 µM (inactive)	> 100 µM (inactive)	> 100 µM (inactive)	20 µM (inactive)	> 100 µM (inactive)	> 100 µM (inactive)	> 100 µM (inactive)	> 100 µM (inactive)	> 100 µM (inactive)	> 100 µM (inactive)	> 100 µM (inactive)	> 100	> 100 µM (inactive)	> 100 µM (inactive)	> 100 µM (inactive)	> 100 µM (inactive)	32.3 µM (inactive)	> 100 µM (inactive)
O=C(/C=C1\C[C@H]2C=Nc3ccccc3C(=O)N2C1)NCCCCCNC(=O)/C=C1\C[C@H]2C=Nc3ccccc3C(=O)N2C1	0.726 µM (active)	14.2 µM (inactive)	22.9 µM (inactive)	18.3 µM (inactive)	4.36 µM (inactive)	13.6 µM (inactive)	18.3 µM (inactive)	22.2 µM (inactive)	18.8 µM (inactive)	6.97 µM (inactive)	0.532 µM (active)	19.1 µM (inactive)	4.74 µM (inactive)	3.44	16.1 µM (inactive)	18 µM (inactive)	3.56 µM (inactive)	7.53 µM (inactive)	2.52 µM (inactive)	17.7 µM (inactive)
CC1=C[P+](c2ccccc2)(c2ccccc2)c2ccccc2O1	3.25 µM (inactive)	11.6 µM (inactive)	13.6 µM (inactive)	20.5 µM (inactive)	2.79 µM (inactive)	11.4 µM (inactive)	13 µM (inactive)	2.81 µM (inactive)	17.4 µM (inactive)	5.05 µM (inactive)	1.29 µM (inactive)	7.89 µM (inactive)	1.32 µM (inactive)	> 100	7.11 µM (inactive)	16.7 µM (inactive)	> 100 µM (inactive)	3.42 µM (inactive)	4.71 µM (inactive)	2.07 µM (inactive)

Source: ChEMBL document CHEMBL1201862, “PubChem BioAssay data set” (2004)
